Assay [1] concerns the target recombinant human HDAC6 (Homo sapiens (Human), UniProt Q9UBN7). Nature of the assay: Enzymatic screening, HDAC6 inhibition (fluorogenic FdL_G substrate). Format: biochemical. The essentials: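 Enzyme was preincubated with compound (8 doses, triplicate, 1% DMSO) in 25 mM Tris-HCl pH 8, 130 mM NaCl, 0.05% Tween-20, 10% glycerol, with BSA. A FLUOR DE LYS-Green substrate was then added, and fluorescence was read after developer plus 2 μM TSA.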

Assay [2] concerns the target recombinant human HDAC1 (Homo sapiens (Human), UniProt Q13547). Nature of the assay: Enzymatic screening, HDAC1 inhibition (fluorogenic FdL_G substrate). Type of assay: biochemical. A digest of the protocol:
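Recombinant human HDAC1 inhibition was measured fluorometrically using the FLUOR DE LYS-Green (FdL_G) substrate. Compounds at 8 doses (1% DMSO final) in Tris-HCl pH 8 buffer with NaCl, Tween-20 and glycerol were preincubated in triplicate with enzyme and 1 mg/mL BSA, then given substrate. Developer I plus 2 μM TSA was added, and fluorescence read after 25 minutes in the dark.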

pIC50: −log10 of the molar value.

Sequence of recombinant human HDAC6 (Q9UBN7 whole entry): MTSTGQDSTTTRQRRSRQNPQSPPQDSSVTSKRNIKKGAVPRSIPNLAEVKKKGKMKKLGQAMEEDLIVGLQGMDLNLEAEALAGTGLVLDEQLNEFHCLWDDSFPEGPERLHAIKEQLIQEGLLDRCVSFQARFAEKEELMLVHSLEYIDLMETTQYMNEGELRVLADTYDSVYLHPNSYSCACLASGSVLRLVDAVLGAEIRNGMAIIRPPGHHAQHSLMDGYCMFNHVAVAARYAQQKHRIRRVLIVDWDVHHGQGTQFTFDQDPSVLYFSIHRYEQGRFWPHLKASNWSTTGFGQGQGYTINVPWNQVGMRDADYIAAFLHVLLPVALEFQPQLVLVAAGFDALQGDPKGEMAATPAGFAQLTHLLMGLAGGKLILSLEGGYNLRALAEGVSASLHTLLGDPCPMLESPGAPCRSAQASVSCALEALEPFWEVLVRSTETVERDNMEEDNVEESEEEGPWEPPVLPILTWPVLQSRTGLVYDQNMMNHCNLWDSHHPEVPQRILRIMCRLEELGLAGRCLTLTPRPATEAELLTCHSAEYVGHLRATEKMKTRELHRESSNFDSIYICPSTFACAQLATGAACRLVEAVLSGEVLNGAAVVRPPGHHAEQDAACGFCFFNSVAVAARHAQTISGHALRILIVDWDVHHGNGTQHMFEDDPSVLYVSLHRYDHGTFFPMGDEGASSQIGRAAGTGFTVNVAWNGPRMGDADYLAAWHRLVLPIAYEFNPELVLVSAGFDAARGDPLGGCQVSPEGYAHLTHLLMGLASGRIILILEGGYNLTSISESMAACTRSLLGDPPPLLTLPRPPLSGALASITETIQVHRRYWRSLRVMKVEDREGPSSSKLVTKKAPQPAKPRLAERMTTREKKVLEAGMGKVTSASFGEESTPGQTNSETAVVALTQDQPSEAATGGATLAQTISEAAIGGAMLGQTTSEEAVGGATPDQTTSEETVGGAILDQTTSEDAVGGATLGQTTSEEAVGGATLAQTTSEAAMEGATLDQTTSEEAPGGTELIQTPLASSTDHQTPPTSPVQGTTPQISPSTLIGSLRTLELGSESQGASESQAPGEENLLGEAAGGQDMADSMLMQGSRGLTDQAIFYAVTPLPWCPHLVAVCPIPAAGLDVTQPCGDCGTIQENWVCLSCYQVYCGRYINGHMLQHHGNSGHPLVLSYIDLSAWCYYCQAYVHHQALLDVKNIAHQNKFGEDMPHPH
Sequence of recombinant human HDAC1 (Q13547 whole entry): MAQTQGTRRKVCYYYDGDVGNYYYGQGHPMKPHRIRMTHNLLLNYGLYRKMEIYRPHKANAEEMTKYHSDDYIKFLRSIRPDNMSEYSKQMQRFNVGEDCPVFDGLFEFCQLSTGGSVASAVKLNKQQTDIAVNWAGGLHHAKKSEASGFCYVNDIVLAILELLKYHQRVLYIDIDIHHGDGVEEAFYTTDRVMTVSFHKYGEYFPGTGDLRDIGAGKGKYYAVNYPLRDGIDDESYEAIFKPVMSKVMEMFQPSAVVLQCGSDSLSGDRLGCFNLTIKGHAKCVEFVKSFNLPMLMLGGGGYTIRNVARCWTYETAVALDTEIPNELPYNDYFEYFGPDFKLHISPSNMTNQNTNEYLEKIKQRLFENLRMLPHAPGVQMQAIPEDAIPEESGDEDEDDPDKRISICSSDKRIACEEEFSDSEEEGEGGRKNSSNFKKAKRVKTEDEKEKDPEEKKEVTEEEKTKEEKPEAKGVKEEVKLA

Broadly, the pIC50 is the negative decadic logarithm of the IC50, by convention in mol/L. As for `Nc1nc2ccc(-c3cnn(Cc4ccc(-c5nnc(C(F)F)o5)cc4)c3)cc2s1` [compound 326, 6-(1-(4-(5-(difluoromethyl)-1,3,4-oxadiazol-2-yl)benzyl)-1H-pyrazol-4-yl)benzo[d]thiazol-2-amine], the negative-log IC50 (pIC50) in assay [1] is 6.66; in assay [2] it was < 3.00.

Regarding `Nc1nc2ccc(-c3cnn(Cc4ccc(-c5nnc(C(F)F)o5)cn4)c3)cc2s1` [compound 327, 6-[1-[[5-[5-(difluoromethyl)-1,3,4-oxadiazol-2-yl]pyridin-2-yl]methyl]pyrazol-4-yl]-1,3-benzothiazol-2-amine], the pIC50 was 7.40 in assay [1] and < 3.00 in assay [2].

As for `Cn1c(N)nc2cc(-c3cn(Cc4ccc(-c5nnc(C(F)F)o5)cn4)cn3)ccc21` [compound 328, 5-[1-[[5-[5-(difluoromethyl)-1,3,4-oxadiazol-2-yl]pyridin-2-yl]methyl]imidazol-4-yl]-1-methylbenzimidazol-2-amine], the pIC50 in assay [1] is 7.85; in assay [2], < 3.00.

In the case of `Cn1c(N)nc2cc(-c3cn(Cc4ccc(-c5nnc(C(F)F)o5)cc4)cn3)ccc21` [compound 329, 5-[1-[[4-[5-(difluoromethyl)-1,3,4-oxadiazol-2-yl]phenyl]methyl]imidazol-4-yl]-1-methylbenzimidazol-2-amine], the values for the pIC50 in assay [1] and in assay [2] were 7.57 and < 3.00, respectively.

As to `Nc1ccc(-c2ncc(Cc3ccc(-c4nnc(C(F)F)o4)cc3)o2)cc1` [compound 330, 4-(5-(4-(5-(difluoromethyl)-1,3,4-oxadiazol-2-yl)benzyl)oxazol-2-yl)aniline], the pIC50 in assay [1] was 6.33; in assay [2] it was < 3.00.

For the compound `Nc1nc2cc(-c3cnn(Cc4ccc(-c5nnc(C(F)F)o5)cn4)c3)ccc2[nH]1` [compound 331, 5-[1-[[5-[5-(difluoromethyl)-1,3,4-oxadiazol-2-yl]pyridin-2-yl]methyl]pyrazol-4-yl]-1H-benzimidazol-2-amine], the pIC50 in assay [1] was 7.28; in assay [2], < 3.00.

As to `Nc1nc2cc(-c3cnn(Cc4ccc(-c5nnc(C(F)F)o5)cc4)c3)ccc2[nH]1` [compound 332, 5-[1-[[4-[5-(difluoromethyl)-1,3,4-oxadiazol-2-yl]phenyl]methyl]pyrazol-4-yl]-1H-benzimidazol-2-amine], the pIC50 in assay [1] is 7.17; in assay [2], < 3.00.

Take `NC(=O)c1cccc(-c2cnn(Cc3ccc(-c4nnc(C(F)F)o4)cc3)c2)c1` [compound 333, 3-[1-[[4-[5-(difluoromethyl)-1,3,4-oxadiazol-2-yl]phenyl]methyl]pyrazol-4-yl]benzamide]: the values for the pIC50 in assay [1] and in assay [2] were 6.49 and < 3.00, respectively.

Regarding `NC(=O)c1cccc(-c2cnn(Cc3ccc(-c4nnc(C(F)F)o4)cn3)c2)c1` [compound 334, 3-[1-[[5-[5-(difluoromethyl)-1,3,4-oxadiazol-2-yl]pyridin-2-yl]methyl]pyrazol-4-yl]benzamide], the pIC50 is 7.19 in assay [1] and < 3.00 in assay [2].

In the case of `Nc1ccc(-c2cn(C(CCCO)c3ccc(-c4nnc(C(F)F)o4)cc3)nn2)cn1` (stereo not drawn) [compound 335, 4-(4-(6-aminopyridin-3-yl)-1H-1,2,3-triazol-1-yl)-4-(4-(5-(difluoromethyl)-1,3,4-oxadiazol-2-yl)phenyl)butan-1-ol], the pIC50 in assay [1] was 7.21; in assay [2] it was < 3.00.

As to `O=C(Nc1cccc(-c2cn(Cc3ncc(-c4nnc(C(F)F)o4)cc3F)nn2)c1)N1CCOCC1` [compound 336, N-[3-[1-[[5-[5-(difluoromethyl)-1,3,4-oxadiazol-2-yl]-3-fluoropyridin-2-yl]methyl]triazol-4-yl]phenyl]morpholine-4-carboxamide], the pIC50 is 7.24 in assay [1] and < 3.00 in assay [2].

For the compound `O=C(Nc1cccc(-c2cn(Cc3ccc(-c4nnc(C(F)F)o4)cc3Cl)nn2)c1)N1CCOCC1` [compound 337, N-[3-[1-[[2-chloro-4-[5-(difluoromethyl)-1,3,4-oxadiazol-2-yl]phenyl]methyl]triazol-4-yl]phenyl]morpholine-4-carboxamide], the results for the pIC50 in assay [1] and in assay [2] were 7.35 and < 3.00, respectively.

As to `O=C(Nc1cccc(-c2cn(Cc3ccc(-c4nnc(C(F)F)o4)c(F)c3F)nn2)c1)N1CCOCC1` [compound 338, N-[3-[1-[[4-[5-(difluoromethyl)-1,3,4-oxadiazol-2-yl]-2,3-difluorophenyl]methyl]triazol-4-yl]phenyl]morpholine-4-carboxamide], the negative-log IC50 (pIC50) in assay [1] is 7.00; in assay [2], < 3.00.

As to `Nc1nc2ccc(-c3cn(Cc4ccc(-c5nnc(C(F)F)o5)cc4F)nn3)cc2s1` [compound 339, 6-[1-[[4-[5-(difluoromethyl)-1,3,4-oxadiazol-2-yl]-2-fluorophenyl]methyl]triazol-4-yl]-1,3-benzothiazol-2-amine], the pIC50 in assay [1] was 7.62; in assay [2] it was < 3.00.

In the case of `Nc1nc2ccc(-c3cn(Cc4ccc(-c5nnc(C(F)F)o5)cc4Cl)nn3)cc2s1` [compound 340, 6-[1-[[2-chloro-4-[5-(difluoromethyl)-1,3,4-oxadiazol-2-yl]phenyl]methyl]triazol-4-yl]-1,3-benzothiazol-2-amine], the pIC50 in assay [1] is 7.39; in assay [2] it was < 3.00.

Consider `Nc1nc2ccc(-c3cn(Cc4ccc(-c5nnc(C(F)F)o5)c(F)c4F)nn3)cc2s1` [compound 341, 6-[1-[[4-[5-(difluoromethyl)-1,3,4-oxadiazol-2-yl]-2,3-difluorophenyl]methyl]triazol-4-yl]-1,3-benzothiazol-2-amine], for which the pIC50 in assay [1] is 6.87; in assay [2] it was < 3.00.

In the case of `Nc1nc2ccc(-c3cn(Cc4ncc(-c5nnc(C(F)F)o5)cc4F)nn3)cc2s1` [compound 342, 6-[1-[[5-[5-(difluoromethyl)-1,3,4-oxadiazol-2-yl]-3-fluoropyridin-2-yl]methyl]triazol-4-yl]-1,3-benzothiazol-2-amine], the figures for the pIC50 in assay [1] and in assay [2] were 7.49 and < 3.00, respectively.

For `Nc1nc2ccc(-c3cn(Cc4cc(F)c(-c5nnc(C(F)F)o5)cc4F)nn3)cc2s1` [compound 343, 6-[1-[[4-[5-(difluoromethyl)-1,3,4-oxadiazol-2-yl]-2,5-difluorophenyl]methyl]triazol-4-yl]-1,3-benzothiazol-2-amine], the figures for the negative logarithm of the IC50 (pIC50) in assay [1] and in assay [2] were 7.51 and < 3.00, respectively.

With `Cn1c(N)nc2cc(-c3cn(Cc4ccc(-c5nnc(C(F)F)o5)cc4Cl)nn3)ccc21` [compound 344, 5-[1-[[2-chloro-4-[5-(difluoromethyl)-1,3,4-oxadiazol-2-yl]phenyl]methyl]triazol-4-yl]-1-methylbenzimidazol-2-amine], the pIC50 in assay [1] is 7.33; in assay [2], 4.07.

Turning to `Cn1c(N)nc2cc(-c3cn(Cc4ccc(-c5nnc(C(F)F)o5)c(F)c4F)nn3)ccc21` [compound 345, 5-[1-[[4-[5-(difluoromethyl)-1,3,4-oxadiazol-2-yl]-2,3-difluorophenyl]methyl]triazol-4-yl]-1-methylbenzimidazol-2-amine], the pIC50 was 7.62 in assay [1] and 3.77 in assay [2].

As for `Cn1c(N)nc2cc(-c3cn(Cc4ccc(-c5nnc(C(F)F)o5)c(F)c4)nn3)ccc21` [compound 346, 5-[1-[[4-[5-(difluoromethyl)-1,3,4-oxadiazol-2-yl]-3-fluorophenyl]methyl]triazol-4-yl]-1-methylbenzimidazol-2-amine], the pIC50 in assay [1] was 7.59; in assay [2] it was < 3.00.

For the compound `Nc1nc2ccc(-c3cn(Cc4ccc(-c5nnc(C(F)F)o5)c(F)c4)nn3)cc2s1` [compound 347, 6-[1-[[4-[5-(difluoromethyl)-1,3,4-oxadiazol-2-yl]-3-fluorophenyl]methyl]triazol-4-yl]-1,3-benzothiazol-2-amine], the pIC50 in assay [1] was 7.57; in assay [2] it was < 3.00.

As for `Cn1c(N)nc2cc(-c3nnn(Cc4ccc(-c5nnc(C(F)F)o5)cc4F)n3)ccc21` [compound 348, 5-[2-[[4-[5-(difluoromethyl)-1,3,4-oxadiazol-2-yl]-2-fluorophenyl]methyl]tetrazol-5-yl]-1-methylbenzimidazol-2-amine], the pIC50 in assay [1] is 7.59; in assay [2], < 3.00.

Regarding `Cn1c(N)nc2cc(-c3cn(Cc4ncc(-c5nnc(C(F)F)o5)cc4F)nn3)ccc21` [compound 349, 5-[1-[[5-[5-(difluoromethyl)-1,3,4-oxadiazol-2-yl]-3-fluoropyridin-2-yl]methyl]triazol-4-yl]-1-methylbenzimidazol-2-amine], the pIC50 was 7.32 in assay [1] and 3.75 in assay [2].

With `Cn1c(N)nc2cc(-c3cn(Cc4cc(F)c(-c5nnc(C(F)F)o5)cc4F)nn3)ccc21` [compound 350, 5-[1-[[4-[5-(difluoromethyl)-1,3,4-oxadiazol-2-yl]-2,5-difluorophenyl]methyl]triazol-4-yl]-1-methylbenzimidazol-2-amine], the pIC50 in assay [1] was 7.66; in assay [2], < 3.00.

As for `[2H]C([2H])(c1ccc(-c2nnc(C(F)F)o2)cc1)n1cc(-c2ccc3nc(N)sc3c2)nn1` [compound 351, 6-[1-[dideuterio-[4-[5-(difluoromethyl)-1,3,4-oxadiazol-2-yl]phenyl]methyl]triazol-4-yl]-1,3-benzothiazol-2-amine], the pIC50 in assay [1] is 7.68; in assay [2] it was < 3.00.

In the case of `[2H]C([2H])(c1ccc(-c2nnc(C(F)F)o2)cc1)n1cc(-c2cccc(NC(=O)N3CCOCC3)c2)nn1` [compound 352, N-[3-[1-[dideuterio-[4-[5-(difluoromethyl)-1,3,4-oxadiazol-2-yl]phenyl]methyl]triazol-4-yl]phenyl]morpholine-4-carboxamide], the pIC50 in assay [1] was 7.22; in assay [2] it was < 3.00.

(Values after patent publication US20230286970A1, “NOVEL OXADIAZOLE-BASED SELECTIVE HDAC6 INHIBITORS” (ITALFARMACO S.P.A., priority 2020, published 2023).)
